From US20170333591A9, “ABSORBENT ARTICLE COMPRISING MALODOR REDUCTION COMPOSITIONS” (The Procter & Gamble Company, priority 2014, published 2017)

Assay: Log of liquid dish neat product liquid-air partition coefficient
Assay type: physicochemical
Conditions: not given

Structure (SMILES) | Comment Code: Log of liquid dish neat product liquid-air partition coefficient
C=C(C)C(=O)OCCc1ccccc1 [Material 971] | K (Log of liquid dish neat product liquid-air partition coefficient greater than or equal to 7)
CC(C)c1ccc(CC=O)cc1 [Material 977] | K (Log of liquid dish neat product liquid-air partition coefficient greater than or equal to 7)
CC(C)(C)C(=O)OC1CC2CC1C1CC=CC21 (stereo not shown) [Material 978] | K (Log of liquid dish neat product liquid-air partition coefficient greater than or equal to 7)
COc1ccc(CC(C)=O)cc1 [Material 983] | K (Log of liquid dish neat product liquid-air partition coefficient greater than or equal to 7)
CC(C)(C)c1ccc(CC=O)cc1 [Material 994] | K (Log of liquid dish neat product liquid-air partition coefficient greater than or equal to 7)
CCC(C)(C)C1CCC(O)CC1 (stereo not shown) [Material 995] | K (Log of liquid dish neat product liquid-air partition coefficient greater than or equal to 7)
CC(=O)CCc1ccc(O)cc1 [Material 1002] | K (Log of liquid dish neat product liquid-air partition coefficient greater than or equal to 7)
CC1=CC[C@@H]2C3CC([C@@H]2C1)[C@@]1(C3)OC1C (stereo partly shown) [Material 1007] | K (Log of liquid dish neat product liquid-air partition coefficient greater than or equal to 7)
C=C[C@@](C)(O)CCC=C(C)C [Material 1017] | K (Log of liquid dish neat product liquid-air partition coefficient greater than or equal to 7)
CC1=CC(C)C2(CCCC(C)(C)C2=O)CC1 (stereo not shown) [Material 1022] | K (Log of liquid dish neat product liquid-air partition coefficient greater than or equal to 7)
CC/C(=C/CC1CC=C(C)C1(C)C)CO (stereo not shown) [Material 1024] | K (Log of liquid dish neat product liquid-air partition coefficient greater than or equal to 7)
COC1CC2CC1C1CC(C=O)CC21 (stereo not shown) [Material 1027] | K (Log of liquid dish neat product liquid-air partition coefficient greater than or equal to 7)
CC1=CC[C@@H]2[C@@]3(C)CCCC(C)(C)[C@@H]3CC[C@@]2(C)O1 [Material 1029] | K (Log of liquid dish neat product liquid-air partition coefficient greater than or equal to 7)
CCCOC(=O)[C@H](C)OC(C)(C)CC [Material 1030] | K (Log of liquid dish neat product liquid-air partition coefficient greater than or equal to 7)
C=C1CC[C@@H]2[C@H]([C@H]3[C@H]1CC[C@]3(C)O)C2(C)C [Material 1035] | K (Log of liquid dish neat product liquid-air partition coefficient greater than or equal to 7)
C=CCCC(=O)C1=CCCC2(CCCC2)C1 [Material 1038] | K (Log of liquid dish neat product liquid-air partition coefficient greater than or equal to 7)
CC(=O)OC(C)c1ccccc1 (stereo not shown) [Material 1041] | K (Log of liquid dish neat product liquid-air partition coefficient greater than or equal to 7)
CC(O)CCC1C(C)CCCC1(C)C (stereo not shown) [Material 1052] | K (Log of liquid dish neat product liquid-air partition coefficient greater than or equal to 7)
CC=CC(=O)C1C(C)=CCCC1(C)C (stereo not shown) [Material 1074] | K (Log of liquid dish neat product liquid-air partition coefficient greater than or equal to 7)
C/C=C/c1ccc(O)c(OC)c1 [Material 1084] | K (Log of liquid dish neat product liquid-air partition coefficient greater than or equal to 7)
CC1CC2CCC3C(C2O1)C(C)(C)C(C)C3(C)C (stereo not shown) [Material 1097] | K (Log of liquid dish neat product liquid-air partition coefficient greater than or equal to 7)

Same assay, conditions: code letters K/L of the Comment Code

Structure (SMILES) | Log of liquid dish neat product liquid-air partition coefficient (Comment Code)
O=C(Oc1ccccc1)c1ccccc1 [Material 965] | K (Log of liquid dish neat product liquid-air partition coefficient greater than or equal to 7)
CC(C)(C)C(=O)OC1CC2CC1C1CC=CC21 (stereo not shown) [Material 978] | K (Log of liquid dish neat product liquid-air partition coefficient greater than or equal to 7)
CC(C)C1=CCC(C)(O)CC1 (stereo not shown) [Material 982] | K (Log of liquid dish neat product liquid-air partition coefficient greater than or equal to 7)
CC1=CCC(/C=C/C(C)(C)C(C)O)C1(C)C (stereo not shown) [Material 985] | K (Log of liquid dish neat product liquid-air partition coefficient greater than or equal to 7)
CC(C)=CCCC1=CCC(C)(C=O)CC1 (stereo not shown) [Material 988] | K (Log of liquid dish neat product liquid-air partition coefficient greater than or equal to 7)
CCC=CCC=CC=CC(=O)OCC [Material 1000] | K (Log of liquid dish neat product liquid-air partition coefficient greater than or equal to 7)
CC1CC(C)(C)OC(Cc2ccccc2)O1 (stereo not shown) [Material 1003] | K (Log of liquid dish neat product liquid-air partition coefficient greater than or equal to 7)
CC1CC(C)(c2ccccc2)CO1 (stereo not shown) [Material 1006] | K (Log of liquid dish neat product liquid-air partition coefficient greater than or equal to 7)
CC1=CC[C@@H]2C3CC([C@@H]2C1)[C@@]1(C3)OC1C (stereo partly shown) [Material 1007] | K (Log of liquid dish neat product liquid-air partition coefficient greater than or equal to 7)
CC(CO)CCCc1ccccc1 (stereo not shown) [Material 1012] | K (Log of liquid dish neat product liquid-air partition coefficient greater than or equal to 7)
CC1=CCOC(c2ccccc2)C1 (stereo not shown) [Material 1016] | K (Log of liquid dish neat product liquid-air partition coefficient greater than or equal to 7)
C=CCc1ccc2c(c1)OCO2 [Material 1021] | K (Log of liquid dish neat product liquid-air partition coefficient greater than or equal to 7)
CC1=CC(C)C2(CCCC(C)(C)C2=O)CC1 (stereo not shown) [Material 1022] | K (Log of liquid dish neat product liquid-air partition coefficient greater than or equal to 7)
CC1=CCC(CCC(C)C(C)O)C1(C)C (stereo not shown) [Material 1023] | K (Log of liquid dish neat product liquid-air partition coefficient greater than or equal to 7)
CC/C(=C/CC1CC=C(C)C1(C)C)CO (stereo not shown) [Material 1024] | K (Log of liquid dish neat product liquid-air partition coefficient greater than or equal to 7)
CC(=CCC1CC=C(C)C1(C)C)CO (stereo not shown) [Material 1025] | K (Log of liquid dish neat product liquid-air partition coefficient greater than or equal to 7)
COC1CC2CC1C1CC(C=O)CC21 (stereo not shown) [Material 1026] | K (Log of liquid dish neat product liquid-air partition coefficient greater than or equal to 7)

Structure (SMILES) | Log of liquid dish neat product liquid-air partition coefficient (Comment Code)
COC1CC2CC1C1CC(C=O)CC21 (stereo not shown) [Material 1027] | K (Log of liquid dish neat product liquid-air partition coefficient greater than or equal to 7)
CC1=CC[C@@H]2[C@@]3(C)CCCC(C)(C)[C@@H]3CC[C@@]2(C)O1 [Material 1029] | K (Log of liquid dish neat product liquid-air partition coefficient greater than or equal to 7)
CC(C)Cc1ccc(CC(C)C=O)cc1 (stereo not shown) [Material 1033] | K (Log of liquid dish neat product liquid-air partition coefficient greater than or equal to 7)
C=C1CC[C@@H]2[C@H]([C@H]3[C@H]1CC[C@]3(C)O)C2(C)C [Material 1035] | K (Log of liquid dish neat product liquid-air partition coefficient greater than or equal to 7)
CC1CCC2C(C2(C)C)C12COC(C)(C)OC2 (stereo not shown) [Material 1036] | K (Log of liquid dish neat product liquid-air partition coefficient greater than or equal to 7)
C=CCCC(=O)C1=CCCC2(CCCC2)C1 [Material 1038] | K (Log of liquid dish neat product liquid-air partition coefficient greater than or equal to 7)
CCCCCCC/C=C\CCC=O [Material 1045] | K (Log of liquid dish neat product liquid-air partition coefficient greater than or equal to 7)
CC1=CC2C(C(C)C)CCC(C)(O)C2CC1 (stereo not shown) [Material 1046] | K (Log of liquid dish neat product liquid-air partition coefficient greater than or equal to 7)
CC1=CC2C(C(C)C)CCC(C)(O)C2CC1 (stereo not shown) [Material 1047] | K (Log of liquid dish neat product liquid-air partition coefficient greater than or equal to 7)
CCCC(O)CCC1C(C)CCCC1(C)C (stereo not shown) [Material 1063] | K (Log of liquid dish neat product liquid-air partition coefficient greater than or equal to 7)
CC(C)=CCC/C(C)=C/CC/C(C)=C/CO [Material 1065] | K (Log of liquid dish neat product liquid-air partition coefficient greater than or equal to 7)
CC/C=C\C/C=C/CCO [Material 1072] | K (Log of liquid dish neat product liquid-air partition coefficient greater than or equal to 7)
CC(C)=CCC/C(C)=C/CO [Material 1082] | K (Log of liquid dish neat product liquid-air partition coefficient greater than or equal to 7)
CCCCCC1C(=O)CCC1CC(=O)OC (stereo not shown) [Material 1083] | K (Log of liquid dish neat product liquid-air partition coefficient greater than or equal to 7)
CCCCCCCCCCCCCO [Material 1090] | K (Log of liquid dish neat product liquid-air partition coefficient greater than or equal to 7)
CC(=O)C1CC/C(C)=C\CC/C(C)=C\C/C=C/1C (stereo not shown) [Material 1095] | K (Log of liquid dish neat product liquid-air partition coefficient greater than or equal to 7)
CC1CC2CCC3C(C2O1)C(C)(C)C(C)C3(C)C (stereo not shown) [Material 1097] | K (Log of liquid dish neat product liquid-air partition coefficient greater than or equal to 7)
